Test results taken from patent US20190255175A1, “ACTIVATION OF TRPA1+ NOCICEPTORS IN THE VAGUS NERVE ATTENUATES SYSTEMIC INFLAMMATION” (THE FEINSTEIN INSTITUTE FOR MEDICAL RESEARCH, priority 2018, published 2019).

Key:
[1] = tested on: sensory nodose ganglion neurons; assay: Calcium influx (fluorescence) in sensory nodose ganglion neurons from VGlut2-GCaMP3 mice; format: cell-based; conditions: IL-1β 20 μg/ml; 6 out of 332 neurons
Protocol: Using patch clamp recordings, IL-1β responses were recorded in nodose ganglion neurons. Application of IL-1β (20 μg/ml) induced calcium influx as indicated by increase of fluorescence in 6 out of 332 (1.8%) sensory nodose ganglion neurons from VGlut2-GCaMP3 mice. Next, whole-cell patch clamp recordings were carried out on the same neurons that responded to IL-1β in calcium influx analysis. When the membrane potential was held at −65 mV, bath application of IL-1β (20 μg/ml) produced slow inward currents in 4 out of 332 (1.2%) nodose neurons. The amplitude of IL-1β induced currents are 108±23 pA (n=4). […] In current-clamp mode, IL-1β reduced action potential threshold from −25±2 mV to −31±3 mV (n=4). […] To further determine the potential interaction of TRPA1 with IL-1β, nodose ganglion neurons from TRPA1 KO mice were examined in a culture system. […] IL1R1 co-localizes with TRPA1 on nodose ganglion neurons, as was determined using immunohistochemical staining.

[2] = Thermoregulation: intraperitoneal body temperature recorded by implant after IL-1β injection; format: in vivo, mice; conditions: for Change in ip body temperature: WT mice
Protocol: FIG. 5A-5B. […] Body temperature was recorded using an ETA-F10 temperature implant (DSI New Brighton, Minn.) that was placed in the peritoneal cavity and fixed to the peritoneal wall. After recording the baseline temperature for 1 hr, rmIL-1β (5.0 μg/kg) was administered by i.p injection. Body temperature of wildtype (n=4) and TRPA1 KO mice (n=4) was recorded for 5 hours post injection. ****p<0.0001. B) IL-1β induces a dose-dependent hypothermic response in mice. After recording the baseline temperature for 1 hr, rmIL-1β (0 [n=4], 0.5 [n=4], 50.0 [n=3] μg/kg) was administered by i.p injection. Body temperature was recorded for 5 hours post injection.
Mice were anesthetized with 2.5% isoflurane with an oxygen flow of 1 L/min. Once anesthetized, the mouse was moved to a supine position with the isoflurane maintained at 2.0% during surgery. A midline incision was made above the peritoneal cavity, with a ETA-F10 temperature implant (DSI New Brighton, Minn.) placed in the peritoneal cavity and tacked to the peritoneal wall. The cavity was then closed, and the mouse monitored every day for 3 days. The mouse was allowed to recover for a minimum of five days prior to any manipulation. The mice were placed on the DIS with baseline ip body temperature recorded for 1 hour prior to IL-1β or saline injection. The ip body temperature recording then continued for 5 hours post injection.
Thermoregulation, specifically in cold sensing, is another major function of the TRPA1 ion channel. When housed at approximately 23° C., WT mice injected with murine IL-1β (5 μg/kg) have significant decrease in body temperature (t-test, p<0.0001) peaking at a temperature change of −2.3±0.15° C., while TRPA1 KO mice have no significant change in body temperature after IL-1β (5 μg/kg) peaking at 0.18±0.40° C. (FIG. 5A). […] However, there was no significant change in ip body temperature after saline ([…]) (t-test, p>0.05) (FIG. 5B). This indicates a previously unknown mechanism of IL-1β fever singling through TRPA1+ fibers of the vagus nerve, linking TRPA1's role in both thermoregulation as well as afferent inflammatory signaling through the vague nerve.

vagus nerve = assay: Cervical vagus nerve electrophysiological recording after IL-1β challenge; format: in vivo, mice
Protocol: FIG. 3. TRPA1 is required for IL-1β induced vagus nerve signaling. Vagus nerve firing rate in 60s-Bins (mean±SEM) starting 5 min prior to IL-1β injection (350 ng/kg) indicated by arrow followed by 5 min post injection time.
Mice were induced with general anesthesia using isoflurane at 2.5% in 100% oxygen at a flow rate of 1 L/min. Once anesthetized, the mouse was moved to a supine position with the isoflurane maintained at 2.0% during surgery. The nerve was then isolated as described in previous publications^10,11,17. The core body temperature was monitored with a rectal probe and maintained around 37° C. with a heating pad and heat lamp. Prior to recording and nerve placement within the cuff, the electrode was submerged briefly in saline solution.
The electrophysiological signals were digitized from the vagus nerve using a Plexon data acquisition system (Omniplex, Plexon Inc., Dallas, Tex.). Recordings were sampled at 40 kHz with a 120 Hz filter and 50 gain. All signals were recorded from a bipolar cuff electrode referenced to the animal ground placed between the right salivary gland and the skin. In experiments with IL-1β challenge, following acquisition of the baseline activity (10 min), 350 ng/kg recombinant human IL-1β (eBioscience, San Diego, Calif.) was administered intraperitoneally; recordings were then continued for 10 min post-injection.
Analysis of raw recordings was done on Spike2 software (version 7, CED). Raw recordings were filtered (using a high pass filter) and smoothed. To identify neural signals, a user-specific adaptive threshold was employed. All signals were identified as neuronal or non-neuronal. Non-neuronal signals, which consisted mainly of cardiac and respiratory components, were manually removed. All recordings with no identifiable neuronal spikes were removed from analyses.
To recognize how knocking out TRPA1 further effects inflammatory signaling, TRPA1 KO and WT mice were injected with either saline or IL-1β ([…]).
To further determine fiber specificity, a TRPV1 cell depletion model was employed by breeding TRPV1-Cre mice with ROSA-DTA mice. […] To identify if TRPV1 itself is necessary for propagation of the signal, recordings were done in a genetic TRPV1 knockout (TRPV1 KO) mouse. […] To determine a molecular target on TRPV1+ neurons mediating afferent IL-1β signaling, the cation channel TRPA1 was identified. TRPA1 is found on a subset of TRPV1+ neurons; approximately 30%. However, TRPA1 co-localized with TRPV1 on 97% of TRPA1+ neurons^26.

With “IL-1β: interleukin 1β; recombinant human IL-1β for nerve recordings, murine (rmIL-1β) for thermoregulation” as the substance, how does the “Neurons showing calcium influx (increase of fluorescence)” value [1] read?
Its value is 1.8%.

And the “Peak body temperature change” value ([2]; TRPA1 KO mice, IL-1β 5 μg/kg ip)?
Its value is 0.18±0.40 °C.

What about the “Peak body temperature change” value ([2]; WT mice housed at approximately 23° C., murine IL-1β 5 μg/kg ip) of the same substance?
Its value is −2.3±0.15 °C.

What about the “Change in ip body temperature” value ([2]; IL-1β 0.5 μg/kg) of the same substance?
Its value is “significant decreases”.

What about the “Change in ip body temperature” value ([2]; IL-1β 50 μg/kg) of the same substance?
Its value is “significant decreases”.

What about the Vagus nerve activation (vagus nerve; TRPA1 KO mice) of the same substance?
Its Vagus nerve activation is “fails to induce activation of the vagus nerve”.

And the Vagus nerve activity (vagus nerve; TRPV1 KO mice)?
Its Vagus nerve activity is “significant increase”.

What about the Vagus nerve activity (vagus nerve; TRPV1 cell depletion model (TRPV1-Cre x ROSA-DTA mice)) of the same substance?
The Vagus nerve activity was “No significant enhancement of vagus nerve activity”.

And the Vagus nerve activation (vagus nerve; wild type mice)?
Its Vagus nerve activation is “induces activation of the vagus nerve”.
